From the supplement of paper PMC13207355

Assays:
Settings in all cases: exposure time: 72 h
E13 [1] = patient-derived glioblastoma stem cells of classical subtype; assay: phenotypic distance (Euclidean, principal components) from DMSO controls (arbitrary units); higher = stronger morphological change
E28 [2] = patient-derived glioblastoma stem cells of classical subtype; assay: as above
E57 [3] = patient-derived glioblastoma stem cells of mesenchymal subtype; assay: as above
E31 [4] = patient-derived glioblastoma stem cells of proneural subtype; assay: as above
E34 [5] = patient-derived glioblastoma stem cells of proneural subtype; assay: as above
E21 [6] = patient-derived glioblastoma stem cells of mesenchymal subtype; assay: as above
FT3469 [7] = normal neural stem cell line; assay: as above
E13 [8] = assay: surviving fraction (nuclei count normalised to DMSO); higher = more cells surviving (less toxic)
E28 [9] = assay: as above
E57 [10] = assay: as above
E31 [11] = assay: as above
E34 [12] = assay: as above
E21 [13] = assay: as above
FT3469 [14] = assay: as above
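Wherever phenotypic distance (Euclidean, principal components) from DMSO controls is given: cell Painting imaging in 384-well plates, CellProfiler features reduced to at least 20 principal components, Euclidean distance versus same-plate DMSO vehicle wells (0.1% v/v), median over six images per well.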
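Wherever surviving fraction (nuclei count normalised to DMSO) is given: nuclei counted by high-content imaging of Hoechst-stained cells in laminin-coated 384-well plates, relative to 0.1% DMSO vehicle wells, with staurosporine as cell-death control.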

CC(=O)[C@]1(O)Cc2c(O)c3c(c(O)c2[C@@H](O[C@H]2C[C@H](N)[C@H](O)[C@H](C)O2)C1)C(=O)c1ccccc1C3=O [Idarubicin]
Settings	phenotypic distance	surviving fraction
E13 [1], 4.1 nM	7.02	–
E13 [1], 12.3 nM	6.41	–
E13 [1], 37 nM	6.27	–
E13 [1], 111.1 nM	5.38	–
E13 [1], 333.3 nM	6.31	–
E13 [1], 1000 nM	6.11	–
E13 [1], 3000 nM	6.59	–
E13 [8], 4.1 nM	–	0.402
E13 [8], 12.3 nM	–	0.404
E13 [8], 37 nM	–	0.255
E13 [8], 111.1 nM	–	0.25
E13 [8], 333.3 nM	–	0.179
E13 [8], 1000 nM	–	0.0911
E13 [8], 3000 nM	–	0.0243
E21 [6], 4.1 nM	7.83	–
E21 [6], 12.3 nM	6.13	–
E21 [6], 37 nM	5.05	–
E21 [6], 111.1 nM	5.05	–
E21 [6], 333.3 nM	5.58	–
E21 [6], 1000 nM	5.16	–
E21 [6], 3000 nM	8.48	–
E21 [13], 4.1 nM	–	0.371
E21 [13], 12.3 nM	–	0.371
E21 [13], 37 nM	–	0.165
E21 [13], 111.1 nM	–	0.193
E21 [13], 333.3 nM	–	0.167
E21 [13], 1000 nM	–	0.164
E21 [13], 3000 nM	–	0.0457
E28 [2], 4.1 nM	2.71	–
E28 [2], 12.3 nM	3.28	–
E28 [2], 37 nM	3.42	–
E28 [2], 111.1 nM	2.57	–
E28 [2], 333.3 nM	3.02	–
E28 [2], 1000 nM	4.74	–
E28 [2], 3000 nM	5.14	–
E28 [9], 4.1 nM	–	0.386
E28 [9], 12.3 nM	–	0.41
E28 [9], 37 nM	–	0.313
E28 [9], 111.1 nM	–	0.304
E28 [9], 333.3 nM	–	0.271
E28 [9], 1000 nM	–	0.18
E28 [9], 3000 nM	–	0.241
E31 [4], 4.1 nM	2.69	–
E31 [4], 12.3 nM	2.97	–
E31 [4], 37 nM	3.12	–
E31 [4], 111.1 nM	4.59	–
E31 [4], 333.3 nM	4.15	–
E31 [4], 1000 nM	5.28	–
E31 [4], 3000 nM	4.78	–
E31 [11], 4.1 nM	–	0.259
E31 [11], 12.3 nM	–	0.226
E31 [11], 37 nM	–	0.179
E31 [11], 111.1 nM	–	0.149
E31 [11], 333.3 nM	–	0.139
E31 [11], 1000 nM	–	0.114
E31 [11], 3000 nM	–	0.072
E34 [5], 4.1 nM	4.82	–
E34 [5], 12.3 nM	4.66	–
E34 [5], 37 nM	2.72	–
E34 [5], 111.1 nM	2.83	–
E34 [5], 333.3 nM	2.83	–
E34 [5], 1000 nM	5.05	–
E34 [5], 3000 nM	4	–
E34 [12], 4.1 nM	–	0.611
E34 [12], 12.3 nM	–	0.511
E34 [12], 37 nM	–	0.54
E34 [12], 111.1 nM	–	0.538
E34 [12], 333.3 nM	–	0.479
E34 [12], 1000 nM	–	0.448
E34 [12], 3000 nM	–	0.15
E57 [3], 4.1 nM	11.4	–
E57 [3], 12.3 nM	9.36	–
E57 [3], 37 nM	6.52	–
E57 [3], 111.1 nM	6.05	–
E57 [3], 333.3 nM	5.69	–
E57 [3], 1000 nM	6.02	–
E57 [3], 3000 nM	6.32	–
E57 [10], 4.1 nM	–	0.197
E57 [10], 12.3 nM	–	0.205
E57 [10], 37 nM	–	0.146
E57 [10], 111.1 nM	–	0.166
E57 [10], 333.3 nM	–	0.14
E57 [10], 1000 nM	–	0.124
E57 [10], 3000 nM	–	0.0591
FT3469 [7], 4.1 nM	1.93	–
FT3469 [7], 12.3 nM	1.84	–
FT3469 [7], 37 nM	1.77	–
FT3469 [7], 111.1 nM	1.39	–
FT3469 [7], 333.3 nM	2.3	–
FT3469 [7], 1000 nM	3.94	–
FT3469 [7], 3000 nM	5.56	–
FT3469 [14], 4.1 nM	–	0.654
FT3469 [14], 12.3 nM	–	0.716
FT3469 [14], 37 nM	–	0.663
FT3469 [14], 111.1 nM	–	0.592
FT3469 [14], 333.3 nM	–	0.495
FT3469 [14], 1000 nM	–	0.439
FT3469 [14], 3000 nM	–	0.0825

O=c1[nH]c(=O)n([C@H]2C[C@H](O)[C@@H](CO)O2)cc1I [Idoxuridine]
Settings	phenotypic distance	surviving fraction
E13 [1], 4.1 nM	1.19	–
E13 [1], 12.3 nM	1.08	–
E13 [1], 37 nM	1.53	–
E13 [1], 111.1 nM	0.919	–
E13 [1], 333.3 nM	0.742	–
E13 [1], 1000 nM	1.06	–
E13 [1], 3000 nM	0.576	–
E13 [8], 4.1 nM	–	0.99
E13 [8], 12.3 nM	–	0.847
E13 [8], 37 nM	–	0.893
E13 [8], 111.1 nM	–	0.967
E13 [8], 333.3 nM	–	0.953
E13 [8], 1000 nM	–	1.02
E13 [8], 3000 nM	–	1.06
E21 [6], 4.1 nM	0.811	–
E21 [6], 12.3 nM	1.68	–
E21 [6], 37 nM	1.77	–
E21 [6], 111.1 nM	0.694	–
E21 [6], 333.3 nM	1.11	–
E21 [6], 1000 nM	1.12	–
E21 [6], 3000 nM	1.56	–
E21 [13], 4.1 nM	–	0.958
E21 [13], 12.3 nM	–	0.967
E21 [13], 37 nM	–	1
E21 [13], 111.1 nM	–	0.893
E21 [13], 333.3 nM	–	1.01
E21 [13], 1000 nM	–	0.969
E21 [13], 3000 nM	–	0.986
E28 [2], 4.1 nM	0.822	–
E28 [2], 12.3 nM	0.591	–
E28 [2], 37 nM	0.96	–
E28 [2], 111.1 nM	0.701	–
E28 [2], 333.3 nM	0.922	–
E28 [2], 1000 nM	0.762	–
E28 [2], 3000 nM	1.1	–
E28 [9], 4.1 nM	–	1.11
E28 [9], 12.3 nM	–	0.859
E28 [9], 37 nM	–	1.06
E28 [9], 111.1 nM	–	1.12
E28 [9], 333.3 nM	–	0.97
E28 [9], 1000 nM	–	0.76
E28 [9], 3000 nM	–	0.954
E31 [4], 4.1 nM	1.23	–
E31 [4], 12.3 nM	0.821	–
E31 [4], 37 nM	0.938	–
E31 [4], 111.1 nM	0.814	–
E31 [4], 333.3 nM	0.763	–
E31 [4], 1000 nM	0.973	–
E31 [4], 3000 nM	0.756	–
E31 [11], 4.1 nM	–	0.736
E31 [11], 12.3 nM	–	1.04
E31 [11], 37 nM	–	0.782
E31 [11], 111.1 nM	–	1.15
E31 [11], 333.3 nM	–	0.725
E31 [11], 1000 nM	–	0.982
E31 [11], 3000 nM	–	0.787
E34 [5], 4.1 nM	0.63	–
E34 [5], 12.3 nM	0.803	–
E34 [5], 37 nM	0.845	–
E34 [5], 111.1 nM	0.69	–
E34 [5], 333.3 nM	0.689	–
E34 [5], 1000 nM	0.829	–
E34 [5], 3000 nM	1.45	–
E34 [12], 4.1 nM	–	0.86
E34 [12], 12.3 nM	–	1
E34 [12], 37 nM	–	1.04
E34 [12], 111.1 nM	–	0.92
E34 [12], 333.3 nM	–	1.03
E34 [12], 1000 nM	–	0.959
E34 [12], 3000 nM	–	1.01
E57 [3], 4.1 nM	0.916	–
E57 [3], 12.3 nM	0.612	–
E57 [3], 37 nM	0.986	–
E57 [3], 111.1 nM	1.62	–
E57 [3], 333.3 nM	0.906	–
E57 [3], 1000 nM	1.14	–
E57 [3], 3000 nM	1.5	–
E57 [10], 4.1 nM	–	1.04
E57 [10], 12.3 nM	–	1.02
E57 [10], 37 nM	–	0.958
E57 [10], 111.1 nM	–	0.992
E57 [10], 333.3 nM	–	1.01
E57 [10], 1000 nM	–	0.99
E57 [10], 3000 nM	–	0.867
FT3469 [7], 4.1 nM	0.962	–
FT3469 [7], 12.3 nM	1.15	–
FT3469 [7], 37 nM	0.953	–
FT3469 [7], 111.1 nM	0.541	–
FT3469 [7], 333.3 nM	1.76	–
FT3469 [7], 1000 nM	0.62	–
FT3469 [7], 3000 nM	0.72	–
FT3469 [14], 4.1 nM	–	0.845
FT3469 [14], 12.3 nM	–	1.33
FT3469 [14], 37 nM	–	0.987
FT3469 [14], 111.1 nM	–	0.845
FT3469 [14], 333.3 nM	–	1.18
FT3469 [14], 1000 nM	–	0.86
FT3469 [14], 3000 nM	–	1.07
